The source of these data is publication PMC8840664, “Design, Synthesis, Spectroscopic Characterisation and In Vitro Cytostatic Evaluation of Novel Bis(coumarin-1,2,3-triazolyl)benzenes and Hybrid Coumarin-1,2,3-triazolyl-aryl Derivatives” (Molecules, 2022).

SMILES strings stand for the structures. A value given as a limit tells only on which side of the number the result lay.

Data set [1] relates to MCF-7 (breast carcinoma). The data set can be described thus: in vitro antiproliferative activity, MTT assay, MCF-7. Format: cell-based, human. As to conditions: for IC50: Homo sapiens, MCF7, concentration that causes 50% growth inhibition, 72 h, MTT assay. As to the method: (§1) The experiments were carried out on several human cell lines, as follows: HCT116 (colon carcinoma), H 460 (lung carcinoma) and MCF-7 (breast carcinoma), HeLa (cervical carcinoma), human T-lymphocyte cells (CEM) and HMEC-1 (dermal microvascular endothelial cell) according to the previously published experimental procedure. Briefly, the cells were grown in DMEM medium with the addition of 10% foetal bovine serum (FBS), 2 mM L-glutamine, 100 U/mL penicillin and 100 µg/mL streptomycin, and cultured as monolayers at 37 °C in a humidified atmosphere with 5% CO2. HCT116, H 460 and MCF-7 cells were seeded at 2 × 10^3 cells/well in a standard 96-well microtiter plates and left to attach for 24 h. Next day, test compound was added in five serial 10-fold dilutions. The cell growth rate was evaluated after 72 h of incubation, using MTT assay. Obtained results were expressed as IC50 value which stands for the concentration of the compound necessary for 50% of growth inhibition. The IC50 values were calculated from concentration-response curve using linear regression analysis by fitting the test concentrations that give percentage of growth (PG) values above and below the reference value (i.e., 50%). However, if for a given cell line all of the tested concentrations produce PGs exceeding the respective reference level of effect (e.g., PG value of 50), then the highest tested concentration is assigned as the default value, which is preceded by a “>” sign. Each test was performed in quadruplicate in at least two individual experiments.

Data set [2] has as its system human T-lymphocyte cells (CEM). Kind of data set: cell proliferation, Coulter counter, CEM. The conditions noted are these: 96 h, cells counted in a Coulter counter. The data set is classed as cell-based. As for the experimental part:
as §1
(§2) HeLa and HMEC-1 cells were seeded in 48-well plates at 10,000 cells/well. After 24 h, different concentrations of the compounds were added. After 3 days of incubation, the cells were trypsinized and counted in a Coulter counter. Suspension cells (human T-cell leukaemia Cem cells) were seeded in 96-well plates at 60,000 cells/well in the presence of different concentrations of compounds, allowed to proliferate for 96 h, and counted in a Coulter counter. The 50% inhibitory concentration (IC50) was defined as the compound concentration required reducing cell proliferation by 50%.

For data set [3], the system named is HMEC-1 (dermal microvascular endothelial cell). Kind of data set: cell proliferation, Coulter counter, HMEC-1 (non-tumour). Format: cell-based. The conditions noted are these: Homo sapiens, HMEC-1, 72 h; non-tumour cell line; 3 days, cells counted in a Coulter counter. As to the method:
as §1, §2

In data set [4] the test system is HCT116 (colon carcinoma). The data set can be described thus: in vitro antiproliferative activity, MTT assay, HCT116. The data set is classed as cell-based. The conditions noted are these: Homo sapiens, HCT-116, concentration that causes 50% growth inhibition, 72 h. As for the experimental part:
as §1

The test system of data set [5] is H 460 (lung carcinoma). Kind of data set: in vitro antiproliferative activity, MTT assay, H 460. The data set is classed as cell-based. The conditions noted are these: Homo sapiens, NCI-H460, concentration that causes 50% growth inhibition, 72 h. As to the method: as §1
Data set [6] deals with HeLa (cervical carcinoma). Kind of data set: cell proliferation, Coulter counter, HeLa. The data set is classed as cell-based. As to conditions: Homo sapiens, 72 h, 3 days, cells counted in a Coulter counter. As for the experimental part:
as §1, §2

For `Cc1cc(=O)oc2cc(-n3cc(-c4ccccc4)nn3)ccc12` [Compound 2a, 4-Methyl-7-(4-phenyl-1H-1,2,3-triazol-1-yl)-2H-chromen-2-one], the melting point was 267 to 270 °C. This molecule gave an IC50 in data set [1] of 23 ± 9 µM. Moreover, the IC50 in data set [2] was over 100 µM. The molecule further showed an IC50 in data set [3] of over 100 µM. In data set [4], this molecule displayed an IC50 of at least 100 µM. This molecule registered a concentration for half-maximal inhibition (IC50) in data set [5] of at least 100 µM. Further, the IC50 in data set [6] is over 100 µM.
`Cc1cc(=O)oc2cc(-n3cc(-c4ccc(N)cc4)nn3)ccc12` [Compound 2b, 7-[4-(4-Aminophenyl)-1H-1,2,3-triazol-1-yl]-4-methyl-2H-chromene-2-one]: the melting point fell in the range of 269 to 273 °C. Also, in data set [1], half-maximal inhibition (IC50) was put at 0.6 ± 0.1 µM. In data set [2], this molecule gave an IC50 of over 100 µM. The same molecule gave a 50% inhibitory concentration (IC50) in data set [3] of over 100 µM. In data set [4], this molecule yielded an IC50 of 3 ± 2 µM. In data set [5], this molecule came in with an IC50 of at least 100 µM. The molecule also had a concentration for half-maximal inhibition (IC50) in data set [6] of over 100 µM.
In turn, `Cc1cc(=O)oc2cc(-n3cc(-c4ccc(N(C)C)cc4)nn3)ccc12` [Compound 2c, 7-[4-(4-(Dimethylamino)phenyl]-1H-1,2,3-triazol-1-yl)-4-methyl-2H-chromen-2-one] showed a melting point of 275 to 279 °C. In addition, the IC50 in data set [1] was determined as 21 ± 0.03 µM. The same molecule showed an IC50 in data set [2] of 58 ± 7 µM. The same molecule gave an IC50 in data set [3] of over 100 µM. The IC50 in data set [4] is at least 100 µM. The IC50 in data set [5] is at least 100 µM. The molecule further had an IC50 in data set [6] of 88 ± 8 µM.
Consider `Cc1ccc(-c2cn(-c3ccc4c(C)cc(=O)oc4c3)nn2)cc1` [Compound 2d, 4-Methyl-7-[4-(p-tolyl)-1H-1,2,3-triazol-1-yl]-2H-chromen-2-one], for which the melting point was in the range of 269 to 272 °C. In data set [1], the “activity against MCF-7 cell line (in words)” value (shortened to “activity”) is on record as “devoid of activity” and the IC50 is at least 100 µM. The molecule further came in with an IC50 in data set [4] of 36 ± 3 µM. This molecule gave an IC50 in data set [5] of at least 100 µM.
The molecule `Cc1cc(=O)oc2cc(-n3cc(-c4ccc(Br)cc4)nn3)ccc12` [Compound 2e, 7-[4-(4-Bromophenyl)-1H-1,2,3-triazol-1-yl]-4-methyl-2H-chromen-2-one] displayed a melting point of 280 to 285 °C. In data set [1], this molecule returned an IC50 of 32 ± 4 µM. This molecule registered an IC50 in data set [4] of 27 ± 0.06 µM. In data set [5], this molecule gave an IC50 of 85 ± 13.5 µM.
On to `COc1ccc(-c2cn(-c3ccc4c(C)cc(=O)oc4c3)nn2)cc1` [Compound 2f, 7-[4-(4-Methoxyphenyl)-1H-1,2,3-triazol-1-yl]-4-methyl-2H-chromen-2-one], for which the melting point lay in the range of 266 to 270 °C. In data set [1], the “activity” value is listed as “devoid of activity” and the IC50 is at least 100 µM. The molecule also registered an IC50 in data set [4] of 22 ± 21 µM. In data set [5], this molecule had an IC50 of at least 100 µM.
As for `Cc1cc(=O)oc2cc(-n3cc(-c4ccc(C=O)cc4)nn3)ccc12` [Compound 2g, 4-[1-(4-Methyl-2-oxo-2H-chromen-7-yl]-1H-1,2,3-triazol-4-yl)benzaldehyde], the melting point was 282 to 287 °C. In data set [1], the “activity” value was “devoid of activity” and the half-inhibitory concentration (IC50) was at least 100 µM. Also, 77 ± 7 µM corresponded to half-maximal inhibition in data set [4] (IC50). The same molecule came in with an IC50 in data set [5] of at least 100 µM.
On to `Cc1cc(=O)oc2cc(-n3cc(-c4cccc(-c5cn(-c6ccc7c(C)cc(=O)oc7c6)nn5)c4)nn3)ccc12` [Compound 2h, 7,7′-(4,4′-(1,3-Phenylene)bis(1H-1,2,3-triazole-4,1-diyl))bis(4-methyl-2H-chromen-2-one)], for which the IC50 in data set [1] is 0.3 ± 0.2 µM; in data set [2], over 100 µM; in data set [3] it was over 100 µM; in data set [4] it was 9 ± 3 µM; in data set [5], 29 ± 3 µM; in data set [6], over 100 µM.
Take `Cc1cc(=O)oc2cc(-n3cc(-c4ccc(-c5cn(-c6ccc7c(C)cc(=O)oc7c6)nn5)cc4)nn3)ccc12` [Compound 2i, 7,7′-(4,4′-(1,4-Phenylene)bis(1H-1,2,3-triazole-4,1-diyl))bis(4-methyl-2H-chromen-2-one)]: the melting point lay within 255 to 261 °C. The molecule also had an IC50 in data set [1] of 1 ± 0.1 µM. The molecule further registered a half-inhibitory concentration (IC50) in data set [2] of over 100 µM. The molecule further came in with an IC50 in data set [3] of over 100 µM. In data set [4], this molecule yielded an IC50 of 7 ± 3 µM. The molecule further showed an IC50 in data set [5] of at least 100 µM. This molecule returned an IC50 in data set [6] of at least 100 µM.
The molecule `Cc1cc(=O)oc2cc(-n3cc(CSc4nc5ccccc5s4)nn3)ccc12` [Compound 4a, 7-{{4-[(Benzo[d]thiazol-2-yl)thio]methyl}-1H-1,2,3-triazol-1-yl}-4-methyl-2H-chromen-2-one] registered a melting point of 186 to 192 °C. Further, in data set [1], the IC50 was found to be 3 ± 2 µM. Moreover, the IC50 in data set [2] was at least 100 µM. Moreover, in data set [3], the IC50 worked out at 66 ± 4 µM. The midpoint of inhibition in data set [4], the IC50, lay at 31 ± 6 µM. This molecule also gave an IC50 in data set [5] of 21 ± 7 µM. The same molecule had an IC50 in data set [6] of 79 ± 36 µM.
`Cc1cc(=O)oc2cc(-n3cc(CSc4nc5ccccc5[nH]4)nn3)ccc12` [Compound 4b, 7-{4-{[(1H-Benzo[d]imidazol-2-yl)thio]methyl}-1H-1,2,3-triazol-1-yl}-4-methyl-2H-chromen-2-one] came in with a melting point of 237 to 244 °C. In addition, inhibition in data set [1] was half-maximal at 19 ± 3 µM (IC50). Besides, in data set [2], the IC50 turned out to be 74 ± 37 µM. The same molecule showed an IC50 in data set [3] of 69 ± 8 µM. In data set [4], this molecule had an IC50 of 31 ± 5 µM. The molecule further yielded an IC50 in data set [5] of 23 ± 10 µM. The same molecule registered an IC50 in data set [6] of 25 µM.
Regarding `O=c1[nH]cc(F)c(=O)[nH]1` [Compound 5-FU, 5-fluorouracil, reference compound], the half-maximal inhibitory concentration (IC50) in data set [1] was determined as 14 ± 0.3 µM; in data set [4], 4 ± 1 µM; in data set [5], 3 ± 0.3 µM.
As for `COc1cc([C@@H]2c3cc4c(cc3[C@@H](O[C@@H]3O[C@@H]5CO[C@@H](C)O[C@H]5[C@H](O)[C@H]3O)[C@H]3COC(=O)[C@H]23)OCO4)cc(OC)c1O` [etoposide, reference compound], the IC50 in data set [1] stood at 1 ± 0.7 µM; in data set [4], 5 ± 2 µM; in data set [5], 0.1 ± 0.04 µM.
